Test results from patent US20240350432A1, “CENTRAL NERVOUS SYSTEM MODULATORS AS COVID-19 THERAPEUTICS” (priority 2023, published 2024).
“Also recorded” adds a separate entry of the source.

Experiments:
SARS-CoV-2, Beta variant [1] = system: SARS-CoV-2, Beta variant; design: species or system mice; details: mouse, in vivo, ip, 10 mg/kg
SARS-CoV-2, Beta variant [2] = type: in vivo; details: COVID-19 positive mice; for body weight nonlinear regression, Best fit / body weight as percent of baseline weight over time: 10 mg/kg I.P. BID, 10 day group; for body weight as percent of baseline weight over time: 10 mg/kg

Row | SMILES | survival outcome (SARS-CoV-2, Beta variant [1]) | body weight nonlinear regression, Best fit (SARS-CoV-2, Beta variant [2]) | body weight as percent of baseline weight over time (SARS-CoV-2, Beta variant [2]) | body weight nonlinear regression, Slope 1 (SARS-CoV-2, Beta variant [2]; Segmental Line fit) | body weight nonlinear regression, Slope2 (SARS-CoV-2, Beta variant [2]; Segmental Line fit) | body weight nonlinear regression, X0 (SARS-CoV-2, Beta variant [2]; Segmental Line fit)
1 | CC(C(O)c1ccc(O)cc1)N1CCC(Cc2ccccc2)CC1 (stereo not drawn) [ifenprodil] | some protective effect | Segmental Line | appear to reduce observable signs of disease; also recorded: reduction in body weight starting around day 5; also recorded: body weight returned to normal levels by day 10 post-inoculation | -0.8076 | 0.8604 | 6
2 | CC12CC3CC(C)(C1)CC(N)(C3)C2 [memantine] | good survival; also recorded: significantly improved survival outcome | Horizontal Line | appear to reduce observable signs of disease; also recorded: little to no fluctuation in body weight |  |  | 
